According to publication PMC8264504, “Identification of Koumine as a Translocator Protein 18 kDa Positive Allosteric Modulator for the Treatment of Inflammatory and Neuropathic Pain” (Frontiers in Pharmacology, 2021):
Where two headings read alike, the source gives them in different places.

Assays:
[1] = test system: T98G human glioblastoma cells; experiment: Cell viability assay (CellTiter Blue); format: cell-based; conditions: same dosing regimen as proliferation, 48 h
Procedure: T98G cells were plated and treated as in the proliferation assays. After 48 h of drug exposure, CellTiter Blue Reagent (Promega) was added to the cells and incubated for 4 h in 5% CO2 at 37°C. Absorption was measured at 570 nm using 600 nm as a reference wavelength.

[2] = biological target: T1, mouse TSPO recombinant protein (TSPO proteoliposomes) (Mus musculus, UniProt P50637); experiment: SPR single-cycle kinetics on TSPO proteoliposomes; format: binding
T1 construct: His tag; made in house; host or cells: Escherichia coli BL21(DE3) pLysS, pET15b vector
Procedure: (§1) Cells of the BL21(DE3) pLysS Escherichia coli strain were transformed with the pET15b vector, from which the expression of mouse TSPO recombinant protein was induced by 1 mM isopropyl-1-thiol-β-D-galactopyranoside as previously described ([Robert and Lacapère, 2010]; [Senicourt et al., 2017]). Cells were harvested and resuspended in lysis buffer (150 mM NaCl and 50 mM HEPES-Na, pH 7.8) with the addition of 1 mg/ml lysozyme and sonicated thoroughly. The lysate was centrifuged at 15,000 g at 4°C for 20 min to pellet the insoluble inclusion bodies. The final pellet of inclusion bodies was solubilized in binding buffer (150 mM NaCl, 50 mM HEPES-Na, 1% SDS (wt/vol), pH 7.8) and was purified by the Ni-NTA gravity flow column.
Proteoliposomes composed of DMPC/DMPE (9:1) and TSPO in a 5:1 (wt/wt) ratio were prepared using a previously described method ([Ostuni et al., 2010]). Liposomes composed of DMPC/DMPE (9:1) were prepared as published previously ([Hatty et al., 2014]). A few milligrams of DMPC and DMPE were weighed into a round-bottom glass flask, and chloroform and methanol were added to dissolve them. A thin lipid film was prepared by a rotary evaporator and dried under vacuum for at least 3 h to remove all traces of chloroform and methanol. The dry lipid film was resuspended in PBS buffer (10 mM phosphate buffer, 2.7 mM KCl, 137 mM NaCl) to a concentration of 1 mg/ml, hydrated for 2 h at 45–55°C, and finally sonicated to produce small unilamellar vesicles. The suspension of small unilamellar vesicles was then kept at 45°C for use on the same day. The sizes of proteoliposomes and liposomes were determined by dynamic light scattering using Nicomp 380 Z3000 instrument (Parficle Sizing Systems, America).
SPR analyses were performed at 25°C with a Biacore T200 instrument. For proteoliposomes and liposomes (reference), they were immobilized on a series S L1 sensor chips. It is possible that the repeated regeneration steps in the multicycle kinetics process impairs the activity of TSPO proteoliposomes, thus we were unable to use multicycle kinetics to effectively determine the affinity of TSPO and its ligands. Therefore, the single cycle kinetics, which assumes to be as robust as the classical multicycle kinetics for measuring affinity, was used. Kinetic rate constants for the various analytes were determined using single cycle protocols where five serial 2-fold dilutions of the analytes were injected for 180 s without intervening regeneration, followed by a 300 s dissociation phase after the last injection. Interactions were measured at 30 μl/min. PBS, with addition of 1% DMSO (pH 7.4), was used as running buffer. […] For mouse TSPO in a lipid-free environment, affinity was measured according to established methods with minor modifications ([Zhang et al., 2015]). […]

[3] = test system: T98G human glioblastoma cells; experiment: Cell proliferation assay (BrdU ELISA); format: cell-based
Procedure: T98G cells were plated at 1 × 10^4 cells/well in 96-well plates. […] After 48 h of drug exposure, proliferation was indexed using a BrdU ELISA Kit (Roche Molecular Diagnostics) according to the manufacturer’s protocol, and absorption was measured at 370 nm (reference wavelength 492 nm).

[4] = biological target: T2, mouse TSPO recombinant protein (Mus musculus, UniProt P50637); experiment: SPR multicycle kinetics, mouse TSPO in a lipid-free environment; format: binding; conditions: CM5 chip, anti-His capture, read-out: affinity to mouse TSPO
T2 construct: made in house; host or cells: Escherichia coli BL21(DE3) pLysS, pET15b vector
Procedure: as §1
SPR analyses were performed at 25°C with a Biacore T200 instrument. For proteoliposomes and liposomes (reference), they were immobilized on a series S L1 sensor chips. It is possible that the repeated regeneration steps in the multicycle kinetics process impairs the activity of TSPO proteoliposomes, thus we were unable to use multicycle kinetics to effectively determine the affinity of TSPO and its ligands. Therefore, the single cycle kinetics, which assumes to be as robust as the classical multicycle kinetics for measuring affinity, was used. Kinetic rate constants for the various analytes were determined using single cycle protocols where five serial 2-fold dilutions of the analytes were injected for 180 s without intervening regeneration, followed by a 300 s dissociation phase after the last injection. Interactions were measured at 30 μl/min. PBS, with addition of 1% DMSO (pH 7.4), was used as running buffer. Three consecutive 1 min injections with 10 μl/min of glycine HCl 3.0 at the end of each single-cycle kinetics regenerated the chip. For mouse TSPO in a lipid-free environment, affinity was measured according to established methods with minor modifications ([Zhang et al., 2015]). Briefly, HBS-EP buffer was used as the running buffer. […]

rat C6 glioma cells = experiment: Pregnenolone production; format: cell-based; conditions: for EC50: read-out: EC50, pregnenolone production

| Compound | cell viability [1] | Kd ([2]; SPR single-cycle kinetics, TSPO proteoliposomes on L1 chip, 25°C, Langmuir 1:1 fit, read-out: KD) [µM] | EC20 concentration, inhibition of cell proliferation ([3]; 48 h, BrdU) [µM] | EC50 ([3]; 48 h, BrdU, read-out: EC50, inhibition of cell proliferation) [µM] | Kd [4] [µM] | EC20 concentration, pregnenolone production (rat C6 glioma cells) [µM] | increase in pregnenolone production (rat C6 glioma cells) | EC50 (rat C6 glioma cells) [µM] | Kd [2] [µM] | shift of PK11195 concentration-response curve ([3]; 316.3 μM koumine) | shift of Ro5-4864 concentration-response curve ([3]; 400 μM koumine) | cell proliferation ([3]; koumine on its own at 1–600 μM) | modulation of inhibition of proliferation ([3]; koumine with an EC20 concentration of PK11195 (∼75 μM)) | modulation of inhibition of proliferation ([3]; koumine with an EC20 concentration of Ro5-4864 (∼23 μM)) | EC50 (rat C6 glioma cells; Rattus norvegicus, C6 glioma, 2 h) [µM] | Emax (rat C6 glioma cells; Rattus norvegicus, C6 glioma, 2 h, read-out: Emax, pregnenolone production) [%] | modulation of pregnenolone production activity (rat C6 glioma cells; koumine with an EC20 concentration of PK11195 (∼27 μM)) | modulation of pregnenolone production activity (rat C6 glioma cells; koumine with an EC20 concentration of Ro5-4864 (∼11 μM)) |
| --- | --- | --- | --- | --- | --- | --- | --- | --- | --- | --- | --- | --- | --- | --- | --- | --- | --- | --- |
| CN1C(=O)CN=C(c2ccc(Cl)cc2)c2cc(Cl)ccc21 [Ro5-4864, reference compound] | not significantly affected | 0.00206 ± 0.00011 | ~23 | 66 | 170 ± 6.07 | ~11 | approximately 50% | 29 | – | – | – | – | – | – | – | – | – | – |
| C=C[C@@]12CN(C)[C@H]3C[C@]14C(=Nc1ccccc14)[C@H]1C[C@@H]2[C@@H]3CO1 [koumine] | not significantly affected | – | – | – | 97.4 ± 1.76 | – | – | – | 0.00086 ± 7e-05 | produced a leftward shift in the potency | produced a leftward shift in the potency | did not affect | significantly increased the inhibition of proliferation | significantly increased the inhibition of proliferation | 270 | 33 | did not significantly increase | did not significantly increase |
